From patent publication US6964783B1, “Non-solid composition for local application” (Naturveda, priority 1999, dated 2005)

Test system: 0.4×0.4 cm wound
Assay: Wound healing in shaved rats after local application
Format: in vivo
Details: 0.2 ml applied on wound
Procedure: 30 rats (IFFA-CREDO SPF weighing 200+/−20 g) were shaved (3×3 cm) on the right side of the back. A 0.4×0.4 cm wound was produced at the centre of the shaved area. 30 minutes after producing the small wound, the coagulated blood was removed and 0.2 ml of glycerine containing 3% Alchemilla vulgaris (preparation according to example 4) or 0.2 ml of pure glycerine (controls) were applied on ten animals. The ten other control rats received 0.2 ml of distilled water. The complete healing time and the healing index were determined each day for 10 days. The healing time was reduced by 48% with the treatment based on glycerine containing 3% Alchemilla vulgaris, with a healing index of 2.1 in the treated lot, compared to an index of 3.3 obtained with the control lot.
With glycerine alone, the healing time was reduced by 26% with a healing index of 2.7.

## OCC(O)CO [glycerine alone, glycerine]
Determined each day for 10 days, control lot 3.3
  healing index: 2.7
Followed each day for 10 days, versus control lot
  healing time reduced by: 26%
